From US20130156932A1, “Method of increasing the milk and/or meat quantity of silage-fed animals” (BASF SE, priority 2007, published 2013)

Assays:
Type in all cases: in vivo, Zea mays (maize)
corn [1] = experiment: Corn silage strip trials New York 2006: NIRS forage quality and MILK 2006 calculated milk production; settings: New York 2006, pyraclostrobin vs untreated
Method: (§1) Field trials were conducted as strip trials in farm fields in 2006 and 2008. A part of the field was treated with pyraclostrobin applied as Headline® whereas another part was left untreated. Headline® was applied at tassel emergence with 0.44 L/ha (110 g pyraclostrobin per ha) by aerial or ground application with a high clearance sprayer. Total spray volume was 93.5 to 187 L/ha for ground application and 18.7 to 46.7 L/ha for aerial application, respectively. Water was used as a carrier to prepare the spray mixture.
(§2) Trials were harvested using a commercial forage harvester when the corn crop reached a dry matter content of about 30 to 40%. The treated and untreated area of the field was harvested separately to gain total biomass yield (ton/acre). Subsequently, the harvested plant material was used for producing silage.
(§3) Forage samples from the harvested plants were taken from both the treated and untreated areas of the field. Samples were taken from the harvested material in the forage wagon following chopping with the commercial harvester. Multiple forage samples were taken for each of both treatments manually during harvesting in each of the trials, mixed in a larger container, and a subsample of 1.3 to 2.25 kg was taken. The subsamples were placed in plastic bags, sealed, cooled, and shipped immediately to Agsource Soil and Forage Laboratory, 106 North Cecil Street, Bonduel Wis. […]

corn hybrid varieties = experiment: Field trial Wisconsin 2008 with eight corn hybrids: calculated milk production per ton of harvested biomass
Method: as §1, §2, §3

corn [2] = experiment: Corn silage strip trials Maryland 2006: NIRS forage quality and MILK 2006 calculated milk production
Method: as §1, §2
(§4) Forage samples from the harvested plants were taken from both the treated and untreated areas of the field. Samples were taken from the harvested material in the forage wagon following chopping with the commercial harvester. Multiple forage samples were taken for each of both treatments manually during harvesting in each of the trials, mixed in a larger container, and a subsample of 1.3 to 2.25 kg was taken. The subsamples were placed in plastic bags, sealed, cooled, and shipped immediately to Agsource Soil and Forage Laboratory, 106 North Cecil Street, Bonduel Wis. 54107, USA for Near Infrared Reflectance Spectroscopy (NIRS) analysis.
(§5) Typically, samples for NIRS analysis are first dried at 55 to 65° C. for 24 h to 48 h prior to analysis. A representative subsample thereof is then dried at 105° C. for another 12 h to 24 h to evaluate the dry matter content of the samples. Subsequently, the remaining sample is grinded and homogenized and again a representative subsample is used for the NIRS analysis. The NIRS analysis procedure uses a commercially available calibration to estimate the values for each quality parameter based on the spectral reflectance information gained. The calibrations are based on the near infra red reflectance spectra of samples with known quality data. The comparison of the spectra of the samples with unknown quality data with the spectra of the known samples allows calculating estimates for each quality parameter of interest.
NIRS analysis provided dry matter, crude protein, Acid Detergent Fibre (ADF), Neutral Detergent Fibre (NDF), and starch data. Calculations were included for moisture, adjusted crude protein, Total Digestible Nutrients (TDN), Net Energy for Lactation (NEL), Net Energy for Gain (NEG) and protein solubility.
The information was then entered into the MILK 2006 University of Wisconsin Corn Silage evaluation system. Calculations of the milk production, energy content and digestibility per ton of corn biomass were carried out using a calculation method described in:
a) Schwab, E. C., and R. D. Shaver. 2001: “Evaluation of corn silage nutritive value using MILK2000” (pages 21-24) in Proc. of 25th Forage Production and Use Symposium. WI Forage Council Annual Mtg. Eau Claire, Wis.
b) Schwab, E. C., R. D. Shaver. J. G. Lauer, and J. G. Coors. 2003: “Estimating silage energy value and milk yield to rank corn hybrids”. J. Anim. Feed Sci. Technol. 109: 1-18. as well as in
c) Undersander, D. J., W. T. Howard, and R. D. Shaver. 1993: “Milk per acre spreadsheet for combining yield and quality into a single term”. J. Prod. Ag. 6: 231 235.
In 2006 a total of 16 strip trials were conducted in Queen Ann County, Md. Trial setup, treatments, application, harvesting, sampling and quality analysis including calculation of milk production per ton and per acre followed the procedure described before.

corn [3] = experiment: Corn silage strip trials Wisconsin 2006: NIRS forage quality and MILK 2006 calculated milk production
Method: as §1, §2, §4
as §5, with “The calibrations are based on the near infra red reflectance spectra of samples with known quality data. The comparison of the spectra of the samples with unknown quality data with the spectra of the known samples allows calculating estimates for each quality parameter of interest.” left out

[4] = Maryland 2006, pyraclostrobin vs untreated
[5] = Wisconsin 2006, pyraclostrobin vs untreated

Compound: COC(=O)N(OC)c1ccccc1COc1ccn(-c2ccc(Cl)cc2)n1 [Pyraclostrobin, pyraclostrobin]
- % CP, % Difference to Untreated (corn [1]): +6.0%
- % Dry Matter, % Difference to Untreated (corn [1]): −2.2%
- Calculated milk production, Milk (kg/t) (corn hybrid varieties; Example 4.6, hybrid DS93VT3, Wisconsin 2008): 1600 kg/t
- milk production per ton of harvested corn biomass used to produce silage (corn hybrid varieties; across the eight tested different corn hybrids, result in words): improves the milk production
- total digestible nutrients as percent of dry matter (TDN % of DM) (corn [2]; Maryland 2006, average of 16 strip trials, 110 g pyraclostrobin per ha): 70.0 % of DM
- crude protein content (% CP) (corn [2]; Maryland 2006, average of 16 strip trials, Headline at tassel emergence, 110 g pyraclostrobin per ha): 7.1%
- % CP, % Difference to Untreated (corn [2]; [4]): +6.0%
- % NDF, % Difference to Untreated (corn [2]; [4]): −4.8%
- % NDFD, % Difference to Untreated (corn [2]; [4]): +3.9%
- Milk (kg/t), % Difference to Untreated (corn [2]; [4]): +5.9%
- TDN % of DM, % Difference to Untreated (corn [2]; [4]): +3.6%
- crude protein content (% CP) (corn [3]; Wisconsin 2006, average of 7 strip trials, 110 g pyraclostrobin per ha): 7.5%
- % CP, % Difference to Untreated (corn [3]; [5]): +4.2%
- Milk (kg/t), % Difference to Untreated (corn [3]; [5]): +14.0%
